The assay concerns the target human P2X7 receptor (Homo sapiens, UniProt Q99572, R270H/Y155H). In words: Evaluation of human P2X7 receptor inhibitory activity (Yo-Pro uptake, BzATP stimulation, FLIPR TETRA). It counts as cell-based. In outline:
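Yo-Pro dye uptake triggered by BzATP was monitored by FLIPR in human P2X7-transfected 1321N1 cells (SNP variant) in HEPES-buffered HBSS, pH 7.4-7.5. Compound was dispensed 8 min post-stimulation, then signal read for 20 min; IC50 derived logistically from inhibition of the fluorescence range.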

[1] abbreviates: 1321N1 cells stably expressing human P2X7 receptor, BzATP stimulation, Yo-Pro uptake, read-out: IC50 (antagonistic activity for the human P2X7 receptor).
[2] abbreviates: 1321N1 cells stably expressing human P2X7 receptor, BzATP stimulation, Yo-Pro uptake, read-out: IC50 (antagonistic activity for the human P2X7 receptor), class symbol.
[3] abbreviates: antagonistic activity for the human P2X7 receptor, read-out: IC50.

For 71 compounds, IC50 results are on record in patent US10774051B2, “6-membered heterocyclic derivatives and pharmaceutical composition comprising the same” (Shionogi & Co., Ltd., priority 2015, dated 2020).

In general, IC50 refers to the point on the concentration scale where inhibition reaches its midpoint.

Read-outs that look alike come from different tables or passages of the source.

Take `COc1cc(C)c(Nc2ncc(OC)c(=O)n2Cc2ccc(F)c(Cl)c2)cc1C` [Compound I-0985]: the IC50 under setting [1] worked out at 65 nM.
Regarding `COc1cn(Cc2ccccc2)c(Nc2cccc(Oc3ccccc3)c2C)nc1=O` [Compound I-0138], the IC50 under setting [2] is 500 to 1000 nM.
On the same count and under the same terms, the same measure for `COc1cc(C)cc(Nc2nc(=O)c(OC)cn2Cc2ccc(F)c(Cl)c2)c1C` [Compound I-0449]: less than 10 nM.
In the case of `COc1cn(Cc2ccccc2)c(Nc2cccc(OC(C)C)c2C)nc1=O` [Compound I-0129], the IC50 under setting [2] lay within 100 to 500 nM.
The same measure, in the same setting: the same measure for `CCc1ccccc1Nc1nc(=O)c(OC)cn1Cc1cccc(Cl)c1` [Compound I-0322]: 10 to 100 nM; for `COc1ccc(C)c(Nc2nc(=O)c(OC)cn2Cc2ccccc2)c1` [Compound I-0074]: 10 to 100 nM.
For `COc1cc(Cl)c(Nc2nc(=O)c(F)cn2Cc2cc(F)c(F)c(F)c2)cc1F` [Compound I-1239], the half-maximal inhibitory concentration (IC50) under setting [3] is less than 10 nM.
Regarding `Cc1cc(C)c(Nc2nc(=O)c(F)cn2Cc2cc(F)cc(F)c2)cc1CO` [Compound I-1111], under setting [3], the IC50 is less than 10 nM.
With `CCOc1ccc(Nc2nc(=O)c(OC)cn2Cc2cc(F)cc(F)c2)c(C)c1` [Compound I-0680], under setting [3], the 50% inhibitory concentration (IC50) lay in the range of 10 to 100 nM.
`Cc1cc(OC(F)F)c(C)cc1Nc1nc(=O)c(Cl)cn1Cc1cc(F)cc(F)c1` [Compound I-0839]: under setting [3], the IC50 was less than 10 nM.
For the compound `COc1cn(Cc2ccccc2)c(Nc2c(Cl)cccc2Cl)nc1=O` [Compound I-0083], the IC50 under setting [2] is 500 to 1000 nM.
As to `CCc1cc2c(cc1Nc1nc(=O)c(OC)cn1Cc1ccccc1F)CCC2` [Compound I-0178], the concentration for half-maximal inhibition (IC50) under setting [1] turned out to be 21 nM.
On to `COc1cn(Cc2cc(F)cc(Cl)c2)c(Nc2cc3sc(C)nc3cc2C)nc1=O` [Compound I-0669], for which the IC50 under setting [3] lay within 10 to 100 nM.
For the compound `COc1cc(C)c(Nc2nc(=O)c(F)cn2Cc2cc(F)cc(F)c2)cc1C(C)C` [Compound I-1071], under setting [1], the IC50 stood at 15 nM.
Same read-out and setting: the result for `COc1cn(Cc2ccc(F)c(Cl)c2)c(Nc2cc3cc[nH]c3cc2C)nc1=O` [Compound I-0941] reads 12 nM.
Consider `COc1cn(Cc2ccc(F)c(Cl)c2)c(Nc2cc(OC(F)F)ccc2C)nc1=O` [Compound I-0871], for which the IC50 under setting [3] fell in the range of 10 to 100 nM.
For the compound `COc1cn(Cc2ccc(F)c(Cl)c2)c(Nc2cc3[nH]ncc3cc2C)nc1=O` [Compound I-0492], the concentration for half-maximal inhibition (IC50) under setting [2] is less than 10 nM.
For `CCc1c(Cl)cccc1Nc1nc(=O)c(OC)cn1Cc1ccccc1` [Compound I-0215], the half-maximal inhibitory concentration (IC50) under setting [2] is less than 10 nM.
`Cc1cccc(Nc2nc(=O)c(F)cn2Cc2cc(F)c(F)c(F)c2)c1C` [Compound I-1189]: under setting [3], the IC50 was less than 10 nM.
Take `CCc1cc(Cl)ccc1Nc1nc(=O)c(OC)cn1Cc1ccccc1` [Compound I-0161]: the IC50 under setting [2] lay in the range of 10 to 100 nM.
In the case of `COc1cn(Cc2ccc(F)cc2)c(Nc2cc3c(cc2C)OCCO3)nc1=O` [Compound I-0289], under setting [1], the IC50 worked out at 27 nM.
For `CCOc1cc(C)c(Nc2nc(=O)c(OC)cn2Cc2ccc(F)cc2)cc1C` [Compound I-0258], under setting [2], the IC50 is less than 10 nM.
In the case of `COc1cc(Nc2nc(=O)c(OC)cn2Cc2ccccc2)c(C)cc1C` [Compound I-0585], the 50% inhibitory concentration (IC50) under setting [3] was less than 10 nM.
The same measure, in the same setting: the same measure for `COc1cc(C)c(Nc2nc(=O)c(Cl)nn2Cc2cc(F)c(F)c(F)c2)cc1OC` [Compound I-1264]: less than 10 nM.
With `COc1cn(Cc2ccccc2)c(Nc2ccc(Br)cc2Cc2ccccc2)nc1=O` [Compound I-0184], the IC50 under setting [2] was 100 to 500 nM.
Regarding `COc1ccc(C)c(Nc2nc(=O)c(OC)cn2Cc2ccc(F)c(F)c2)c1` [Compound I-0407], the IC50 under setting [1] was 6 nM.
On to `CCc1cc2c(cc1Nc1nc(=O)c(OC)cn1Cc1ccccc1)CCC2` [Compound I-0116], for which the IC50 under setting [2] was less than 10 nM.
Take `COc1cc(C)cc(Nc2nc(=O)c(OC)cn2Cc2ccc(F)c(Cl)c2)c1C` [Compound I-0465]: under setting [2], the half-inhibitory concentration (IC50) is less than 10 nM.
On to `COc1nc2ccc(Nc3nc(=O)c(OC)cn3Cc3cc(F)cc(F)c3)c(C)c2s1` [Compound I-0830], for which the IC50 under setting [3] is 10 to 100 nM.
For the compound `CCc1cc(OC)c(OC)cc1Nc1nc(=O)c(F)cn1Cc1ccccc1` [Compound I-0266], the IC50 under setting [2] is less than 10 nM.
On the same count and under the same terms, the same measure for `CCc1ccc(Cl)cc1Nc1nc(=O)c(OC)cn1Cc1cccc(Cl)c1` [Compound I-0387]: 10 to 100 nM.
Still for that read-out and setting: the same measure for `COCCNC(=O)c1cn(Cc2ccccc2)c(Nc2cccc(Cl)c2C)nc1=O` [Compound I-0076]: 100 to 500 nM.
With `COc1cc(Nc2nc(=O)c(F)cn2Cc2cc(F)c(F)c(F)c2)c(C)nc1F` [Compound I-1117], under setting [3], the IC50 was 10 to 100 nM.
The same measure, in the same setting: the same measure for `COc1cc(Cl)c(Nc2nc(=O)c(OC)cn2Cc2cc(F)c(F)c(F)c2)cc1OC` [Compound I-0848]: less than 10 nM; for `Cc1ccc(CO)cc1Nc1nc(=O)c(C)nn1Cc1cc(F)c(F)c(F)c1` [Compound I-1254]: less than 10 nM.
Still for that read-out and setting: the same measure for `COc1ccc(Nc2nc(=O)c(C)nn2Cc2cc(F)c(F)c(F)c2)c(C)n1` [Compound I-1259]: 10 to 100 nM.
Turning to `COc1cn(Cc2cc(F)cc(Cl)c2)c(Nc2cc(CO)c(C)cc2C)nc1=O` [Compound I-0578], under setting [2], the IC50 was less than 10 nM.
As for `COCc1cn(Cc2cc(F)c(F)c(F)c2)c(Nc2cc(C)cc3[nH]ccc23)nc1=O` [Compound I-1155], the IC50 under setting [3] was less than 10 nM.
The same measure, in the same setting: the same measure for `COc1cn(Cc2cc(F)cc(F)c2)c(Nc2cc3[nH]ccc3cc2C)nc1=O` [Compound I-0620]: less than 10 nM.
For the compound `CCc1ccc(F)cc1Nc1nc(=O)c(OC)cn1Cc1ccc(F)c(Cl)c1` [Compound I-0567], the IC50 under setting [2] lay within 10 to 100 nM.
Same read-out and setting: the result for `COc1cn(Cc2cccc(Cl)c2)c(Nc2cccc(N(C)C)c2C)nc1=O` [Compound I-0432] reads 10 to 100 nM.
Turning to `Cc1cc(OC(F)F)ccc1Nc1nc(=O)c(F)cn1Cc1ccc(F)c(F)c1` [Compound I-1065], the IC50 under setting [3] was in the range of 10 to 100 nM.
Same read-out and setting: the result for `COc1cn(Cc2ccc(F)c(Cl)c2)c(Nc2cc(Cl)ccc2C)nc1=O` [Compound I-0594] reads 10 to 100 nM; that for `COc1cn(Cc2cc(F)c(F)c(F)c2)c(Nc2cccc(SC)c2C)nc1=O` [Compound I-0704], less than 10 nM.
Regarding `CCc1cc(OC)ccc1Nc1nc(=O)c(OC)cn1Cc1ccc(F)cc1` [Compound I-0262], the IC50 under setting [2] was less than 10 nM.
For the compound `Cc1cn(Cc2cc(F)cc(F)c2)c(Nc2ccc3[nH]ccc3c2C)nc1=O` [Compound I-1164], under setting [3], the IC50 is less than 10 nM.
Turning to `COc1cn(Cc2cc(F)cc(F)c2)c(Nc2cccc(OC(F)F)c2C)nc1=O` [Compound I-0504], under setting [2], the IC50 was less than 10 nM.
Regarding `CCc1cc(F)c(OC)cc1Nc1nc(=O)c(F)cn1Cc1cc(F)c(F)c(F)c1` [Compound I-1211], the IC50 under setting [3] is less than 10 nM.
Same read-out and setting: the same measure for `Cc1ccc(OC(F)F)cc1Nc1nc(=O)c(F)cn1Cc1cc(F)cc(F)c1` [Compound I-0994]: 10 to 100 nM; for `CCOc1cn(Cc2ccc(F)c(Cl)c2)c(Nc2cc(C)cc(OC)c2C)nc1=O` [Compound I-0716]: less than 10 nM.
Still for that read-out and setting: the result for `CCc1cc(F)c(OC)cc1Nc1nc(=O)c(OC)cn1Cc1ccc(F)c(F)c1` [Compound I-0815] reads less than 10 nM.
Same read-out and setting: the result for `CCOc1ccc(Nc2nc(=O)c(F)cn2Cc2cc(F)c(F)c(F)c2)c(C)c1` [Compound I-1034] reads less than 10 nM; that for `Cc1cc2c(cc1Nc1nc(=O)c(F)cn1Cc1cc(F)cc(F)c1)COC2` [Compound I-1027], 10 to 100 nM; that for `Cc1cc(F)c(-c2cccn(C)c2=O)cc1Nc1nc(=O)c(C)cn1Cc1cc(F)c(F)c(F)c1` [Compound I-1148], 10 to 100 nM.
For `COc1cc(C)c(Nc2nc(=O)c(F)cn2Cc2cc(F)cc(F)c2)cc1Cl` [Compound I-1174], the IC50 under setting [3] is less than 10 nM.
With `CCOc1cc(C)c(Nc2nc(=O)c(OC)cn2Cc2ccc(F)c(Cl)c2)cc1C` [Compound I-0231], the IC50 under setting [2] is less than 10 nM.
On to `CCOc1cc(Nc2nc(=O)c(OC)cn2Cc2cc(F)cc(F)c2)c(C)cc1C` [Compound I-0794], for which the IC50 under setting [3] is less than 10 nM.
Consider `COc1cn(Cc2ccc(F)c(F)c2)c(Nc2cc(OCC(F)(F)F)ccc2C)nc1=O` [Compound I-0495], for which, under setting [2], the IC50 lay within 10 to 100 nM.
`COc1cn(Cc2cc(F)cc(Cl)c2)c(Nc2cc(OC(F)F)c(C)cc2C)nc1=O` [Compound I-0877]: the IC50 under setting [3] was in the range of 10 to 100 nM.
On the same count and under the same terms, the result for `Cc1nc2cc(C)c(Nc3nc(=O)cc(C)n3Cc3cc(F)c(F)c(F)c3)cc2s1` [Compound I-1136] reads 10 to 100 nM.
Still for that read-out and setting: the result for `O=c1nc(Nc2cccc3c(O)cccc23)n(Cc2cc(F)c(F)c(F)c2)cc1F` [Compound I-1105] reads less than 10 nM; that for `CCc1cc2c(cc1Nc1nc(=O)c(OC)cn1Cc1ccccc1)OCO2` [Compound I-0687], 10 to 100 nM.
For the compound `COc1cn(Cc2ccccc2)c(NC2CCc3ccccc3C2)nc1=O` (centres unmarked) [Compound I-0187], the IC50 under setting [1] came to 230 nM.
Consider `Cc1nc2cc(C)c(Nc3nc(=O)c(F)cn3Cc3cc(F)c(F)c(F)c3)cc2o1` [Compound I-1183], for which the IC50 under setting [3] is less than 10 nM.
On the same count and under the same terms, the result for `O=c1nc(Nc2cccc3c(O)cccc23)n(Cc2cc(F)cc(F)c2)cc1F` [Compound I-1114] reads less than 10 nM; that for `Cc1cc2c(cc1Nc1nc(=O)c(F)cn1Cc1cc(F)cc(F)c1)CCO2` [Compound I-1001], less than 10 nM.
For the compound `Cc1c(Cl)cccc1Nc1nc(=O)c(C#N)cn1Cc1ccc(F)cc1` [Compound I-0056], the IC50 under setting [2] was 10 to 100 nM.
Still for that read-out and setting: the result for `COc1cn(Cc2ccccc2)c(NCc2cccc(C(F)(F)F)c2Cl)nc1=O` [Compound I-0035] reads 100 to 500 nM.
For `COc1ccc(Cl)c(Nc2nc(=O)c(OC)cn2Cc2cc(F)c(F)c(F)c2)c1` [Compound I-0846], the IC50 under setting [3] was less than 10 nM.
As for `Cc1c(Cl)cccc1Nc1nc(=O)c(N)cn1Cc1ccccc1` [Compound I-0022], the IC50 under setting [1] stood at 17 nM.
As to `Cc1cc(Nc2nc(=O)c(Cl)cn2Cc2cc(F)cc(F)c2)c2cc[nH]c2c1` [Compound I-0706], under setting [1], the IC50 is 15 nM.
